In patent US8791104B2, “1,4-benzodiazepine-2,5-diones with therapeutic properties” (The Regents of the University of Michigan, priority 2005, dated 2014):

Key:
[1] = test system: mitochondrial F1F0-ATPase; conditions: cited from earlier work
[2] = biological target: T1, oligomycin sensitivity conferring protein (OSCP) component of the mitochondrial F1F0-ATPase (Homo sapiens, UniProt P48047); conditions: cited from earlier work
T1 sequence (P48047 24-213): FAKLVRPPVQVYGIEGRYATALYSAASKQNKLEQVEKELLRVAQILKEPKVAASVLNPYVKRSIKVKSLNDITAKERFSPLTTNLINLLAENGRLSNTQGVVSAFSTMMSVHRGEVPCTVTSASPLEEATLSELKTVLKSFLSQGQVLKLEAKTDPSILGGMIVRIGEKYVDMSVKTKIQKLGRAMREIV

animal models of lupus = conditions: in vivo; cited from earlier work
ATP synthesis = assay: Cellular ATP synthesis in the presence of compounds; type: cell-based; conditions: compounds exposed to cells (FIG. 6)
Method: The following four compounds were exposed to cells, and ATP synthesis measured: […]

SMILES	inhibition of the F1F0-ATPase [1]	binding to OSCP [2]	activity in animal models of lupus (animal models of lupus)	inhibition of ATP synthesis (ATP synthesis)
CN1C(=O)C(Cc2ccc3ccccc3c2)N=C(c2ccc(O)cc2)c2cc(Cl)ccc21 (stereo not shown) [Bz-423]	inhibits the enzyme	binds to the oligomycin sensitivity conferring protein (OSCP)	potent activity in animal models of lupus	
CN1C(=O)C(c2ccccc2)NC(c2ccc(O)cc2)c2cc(Cl)ccc21 (stereo not shown)				did inhibit ATP synthesis
